From ChEMBL document CHEMBL4483862, “Open-source discovery of chemical leads for next-generation chemoprotective antimalarials” (2018)

Tested on: Plasmodium berghei
Assay: Luciferase/luciferin-expressing antifolate-resistant parasites were used to infect a culture of HepG2 cells that were pre-incubated with compounds. Infected hepatocytes emit light due to the luciferase reaction. Assay results are presented as the percent inhibition of light emission compared to control. […]
Format: functional
Details: sporozoite; for IC90: read-out: LUCIFERASE INFECTION ASSAY - IC90

Row | SMILES | IC90 [µM] | other results
1 | Cc1ccc(NN2C(=O)C=C(c3ccccc3)C2=O)cc1 | > 11.9 | IC50 (HEPG2TOX_HILL_SLOPE 1.4, HEPG2TOX_R_SQUARED 0.882, PBLUC_HILL_SLOPE 17, PBLUC_R_SQUARED 0.623, read-out: LUCIFERASE INFECTION ASSAY - IC50): 11.2 µM
2 | Cc1ccc2c(c1)CCCN2C(=O)CCc1nc(O)c2ccccc2n1 | > 10 | IC50 (HEPG2TOX_HILL_SLOPE 1.38, HEPG2TOX_R_SQUARED 0.978, PBLUC_HILL_SLOPE 0.881, PBLUC_R_SQUARED 0.443, read-out: LUCIFERASE INFECTION ASSAY - IC50): 3.89 µM
3 | N#C/C(=N\Nc1ccc(OC(F)(F)F)cc1)C(=O)c1ccsc1 | 6.42 | IC50 (HEPG2TOX_HILL_SLOPE 1.43, HEPG2TOX_R_SQUARED 0.957, PBLUC_HILL_SLOPE 2.41, PBLUC_R_SQUARED 0.455, read-out: LUCIFERASE INFECTION ASSAY - IC50): 2.58 µM
4 | Cc1cc(Nc2cccc(C(F)(F)F)c2)n2ncc(C#N)c2n1 | 3.35 | IC50 (HEPG2TOX_HILL_SLOPE 1.43, HEPG2TOX_R_SQUARED 0.906, PBLUC_HILL_SLOPE 4.64, PBLUC_R_SQUARED 0.533, read-out: LUCIFERASE INFECTION ASSAY - IC50): 2.09 µM
5 | c1nc(NCc2ccc(CN3CCOCC3)cc2)c2sccc2n1 | > 10 | IC50 (HEPG2TOX_HILL_SLOPE 1.44, HEPG2TOX_R_SQUARED 0.736, PBLUC_HILL_SLOPE 1.22, PBLUC_R_SQUARED 0.605, read-out: LUCIFERASE INFECTION ASSAY - IC50): 2.88 µM
6 | COc1ccc(NC(=O)c2ccoc2)cc1S(=O)(=O)Nc1ccc(Br)cc1 | 1.62 | IC50 (HEPG2TOX_HILL_SLOPE 1.42, HEPG2TOX_R_SQUARED 0.956, PBLUC_HILL_SLOPE 2.25, PBLUC_R_SQUARED 0.81, read-out: LUCIFERASE INFECTION ASSAY - IC50): 0.611 µM
7 | O=C(c1cnc(Nc2cccc(Oc3ccccc3)c2)[nH]1)c1ccccc1O | 1.08 | IC50 (HEPG2TOX_HILL_SLOPE 1.38, HEPG2TOX_R_SQUARED 0.947, PBLUC_HILL_SLOPE 15.8, PBLUC_R_SQUARED 0.824, read-out: LUCIFERASE INFECTION ASSAY - IC50): 0.938 µM
8 | COC(=O)c1c(C)[nH]c(-c2nc(NCc3ccc(C)cc3)sc2C)c1C | 8.74 | IC50 (HEPG2TOX_HILL_SLOPE 1.4, HEPG2TOX_R_SQUARED 0.957, PBLUC_HILL_SLOPE 3.81, PBLUC_R_SQUARED 0.59, read-out: LUCIFERASE INFECTION ASSAY - IC50): 4.91 µM
9 | Cc1ccc(NCC(=O)NC(=O)Nc2cccc(C)c2C)cc1S(=O)(=O)N1CCCCC1 | > 10 | IC50 (HEPG2TOX_HILL_SLOPE 1.43, HEPG2TOX_R_SQUARED 0.867, PBLUC_HILL_SLOPE 1.55, PBLUC_R_SQUARED 0.466, read-out: LUCIFERASE INFECTION ASSAY - IC50): 2.55 µM
10 | COc1cc(-c2cnc3ccc(Cc4ccccc4)nn23)cc(OC)c1OC | > 10 | IC50 (HEPG2TOX_HILL_SLOPE 1.4, HEPG2TOX_R_SQUARED 0.659, PBLUC_HILL_SLOPE 16.5, PBLUC_R_SQUARED 0.342, read-out: LUCIFERASE INFECTION ASSAY - IC50): 9.26 µM
11 | CC(C)Cn1c(SCc2cn3cc(Cl)ccc3n2)nc2ccccc2c1=O | 7.86 | IC50 (HEPG2TOX_HILL_SLOPE 1.44, HEPG2TOX_R_SQUARED 0.631, PBLUC_HILL_SLOPE 96, PBLUC_R_SQUARED 0.548, read-out: LUCIFERASE INFECTION ASSAY - IC50): 7.68 µM
12 | C/C(=N\NC(=O)c1ccc(Cl)cc1)c1ccccc1O | 4.32 | IC50 (HEPG2TOX_HILL_SLOPE 1.4, HEPG2TOX_R_SQUARED 0.87, PBLUC_HILL_SLOPE 14.3, PBLUC_R_SQUARED 0.668, read-out: LUCIFERASE INFECTION ASSAY - IC50): 3.7 µM
13 | Cc1ccc(Nc2nc(C[N+]3(Cc4csc(Nc5ccc(C)cc5)n4)CCN(Cc4ccc(C#N)cc4)CC3)cs2)cc1 | > 10 | IC50 (HEPG2TOX_HILL_SLOPE 1.4, HEPG2TOX_R_SQUARED 0.751, PBLUC_HILL_SLOPE 1.26, PBLUC_R_SQUARED 0.51, read-out: LUCIFERASE INFECTION ASSAY - IC50): 1.97 µM
14 | Cc1ccccc1-n1c(SCC(=O)Nc2sc3c(c2C(N)=O)CCC3)nc2ccccc2c1=O | > 10 | IC50 (HEPG2TOX_HILL_SLOPE 1.4, HEPG2TOX_R_SQUARED 0.675, read-out: LUCIFERASE INFECTION ASSAY - IC50): > 10 µM
15 | CCOc1cccc(-c2cn3c(-c4cccc(O)c4)cnc3cn2)c1 | 9.74 | IC50 (HEPG2TOX_HILL_SLOPE 1.42, HEPG2TOX_R_SQUARED 0.867, PBLUC_HILL_SLOPE 1.9, PBLUC_R_SQUARED 0.651, read-out: LUCIFERASE INFECTION ASSAY - IC50): 3.05 µM
16 | CCc1cc(=O)n2nc(-c3ccccc3)c(-c3ccccc3)c2[nH]1 | > 10.5 | IC50 (HEPG2TOX_HILL_SLOPE 1.41, HEPG2TOX_R_SQUARED 0.964, PBLUC_HILL_SLOPE 4.43, PBLUC_R_SQUARED 0.223, read-out: LUCIFERASE INFECTION ASSAY - IC50): 7.37 µM

Row | SMILES | IC90 [µM] | other results
17 | O=C(Nc1ccc(I)cc1)C1CCN(C(=O)c2ccncc2)CC1 | 2.8 | IC50 (HEPG2TOX_HILL_SLOPE 1.42, HEPG2TOX_R_SQUARED 0.857, PBLUC_HILL_SLOPE 1.13, PBLUC_R_SQUARED 0.975, read-out: LUCIFERASE INFECTION ASSAY - IC50): 0.403 µM
18 | CC/C(=N\NC(=O)COc1cccc(Br)c1)c1cc(F)ccc1O | 9.51 | IC50 (HEPG2TOX_HILL_SLOPE 1.42, HEPG2TOX_R_SQUARED 0.962, PBLUC_HILL_SLOPE 3.55, PBLUC_R_SQUARED 0.0785, read-out: LUCIFERASE INFECTION ASSAY - IC50): 5.12 µM
19 | Cc1ccc(N/N=C/c2c3ccccc3cc3ccccc23)cc1Cl | 5.87 | IC50 (HEPG2TOX_HILL_SLOPE 1.41, HEPG2TOX_R_SQUARED 0.742, PBLUC_HILL_SLOPE 1.25, PBLUC_R_SQUARED 0.657, read-out: LUCIFERASE INFECTION ASSAY - IC50): 1.01 µM
20 | COc1cccc(-c2cn3c(-c4ccc5c(ccn5C)c4)cnc3cn2)c1F | 0.145 | IC50 (HEPG2TOX_HILL_SLOPE 1.41, HEPG2TOX_R_SQUARED 0.854, PBLUC_HILL_SLOPE 2.39, PBLUC_R_SQUARED 0.955, read-out: LUCIFERASE INFECTION ASSAY - IC50): 0.0579 µM
21 | Cc1ccc(Nc2cc(C(C)C)c(OS(=O)(=O)c3ccc(C)cc3)c(C(C)C)c2)cc1 | 9.61 | IC50 (HEPG2TOX_HILL_SLOPE 1.43, HEPG2TOX_R_SQUARED 0.724, PBLUC_HILL_SLOPE 19.9, PBLUC_R_SQUARED 0.613, read-out: LUCIFERASE INFECTION ASSAY - IC50): 8.6 µM
22 | Cc1cc(-c2cnc(N)c(-c3cccc(C(F)(F)F)c3)c2)cc(C)c1O | 4.83 | IC50 (HEPG2TOX_HILL_SLOPE 1.44, HEPG2TOX_R_SQUARED 0.945, PBLUC_HILL_SLOPE 1.93, PBLUC_R_SQUARED 0.583, read-out: LUCIFERASE INFECTION ASSAY - IC50): 1.55 µM
23 | Cc1nnsc1-c1onc(C)c1C(=O)NC(=O)Nc1cc(Cl)cc(Cl)c1 | 3.02 | IC50 (HEPG2TOX_HILL_SLOPE 1.43, HEPG2TOX_R_SQUARED 0.987, PBLUC_HILL_SLOPE 8.7, PBLUC_R_SQUARED 0.518, read-out: LUCIFERASE INFECTION ASSAY - IC50): 2.34 µM
24 | CCc1ccc(C(=O)Nc2cccc(NC(=O)c3ccccc3C)c2)cc1 | 1.14 | IC50 (HEPG2TOX_HILL_SLOPE 1.42, HEPG2TOX_R_SQUARED 0.919, PBLUC_HILL_SLOPE 4.98, PBLUC_R_SQUARED 0.845, read-out: LUCIFERASE INFECTION ASSAY - IC50): 0.735 µM
25 | Cc1ccc(OCCNC(=O)c2[nH]c3c(c2C)C(=O)CCC3)c(C)c1 | 2.74 | IC50 (HEPG2TOX_HILL_SLOPE 1.42, HEPG2TOX_R_SQUARED 0.935, PBLUC_HILL_SLOPE 2.91, PBLUC_R_SQUARED 0.758, read-out: LUCIFERASE INFECTION ASSAY - IC50): 1.29 µM
26 | Cc1cc(NC(=O)c2ccc(CN3CCN(C/C=C/c4ccccc4)CC3)cc2)ccc1Cl | > 10 | IC50 (HEPG2TOX_HILL_SLOPE 1.44, HEPG2TOX_R_SQUARED 0.929, PBLUC_HILL_SLOPE 2.64, PBLUC_R_SQUARED 0.29, read-out: LUCIFERASE INFECTION ASSAY - IC50): 4.99 µM
27 | Oc1c(C(Nc2nccs2)c2cccnc2)ccc2cccnc12 (configuration not stated) | 3.75 | IC50 (HEPG2TOX_HILL_SLOPE 1.4, HEPG2TOX_R_SQUARED 0.615, PBLUC_HILL_SLOPE 3.49, PBLUC_R_SQUARED 0.793, read-out: LUCIFERASE INFECTION ASSAY - IC50): 2 µM
28 | O=C(Nc1ccc(SC(F)(F)F)cc1)Nc1ccc(SC(F)(F)F)cc1 | 0.867 | IC50 (HEPG2TOX_HILL_SLOPE 1.44, HEPG2TOX_R_SQUARED 0.886, PBLUC_HILL_SLOPE 1.62, PBLUC_R_SQUARED 0.668, read-out: LUCIFERASE INFECTION ASSAY - IC50): 0.223 µM
29 | CCc1cccc2c(C(=O)COC(=O)/C(C#N)=C/c3ccc(OC)cc3)c[nH]c12 | > 10 | IC50 (HEPG2TOX_HILL_SLOPE 1.4, HEPG2TOX_R_SQUARED 0.562, read-out: LUCIFERASE INFECTION ASSAY - IC50): > 10 µM
30 | COc1cc(C(=O)N/N=C2/C(=O)c3cccc4cccc2c34)cc(OC)c1OC | 3.67 | IC50 (HEPG2TOX_HILL_SLOPE 1.4, HEPG2TOX_R_SQUARED 0.956, PBLUC_HILL_SLOPE 15.6, PBLUC_R_SQUARED 0.526, read-out: LUCIFERASE INFECTION ASSAY - IC50): 3.19 µM
31 | NC(CCc1ccccc1)c1csc(Nc2cc(NCCCO)ncn2)n1 (configuration not stated) | > 8.58 | IC50 (HEPG2TOX_HILL_SLOPE 1.38, HEPG2TOX_R_SQUARED 0.93, PBLUC_HILL_SLOPE 3.41, PBLUC_R_SQUARED 0.149, read-out: LUCIFERASE INFECTION ASSAY - IC50): 6.73 µM
